Data published in patent publication US20250011365A1, “ECHINOCANDIN-BASED DRUG, AND PREPARATION METHOD THEREFOR AND USE THEREOF” (Shenzhen Sungening Biological Co., Ltd, priority 2023, published 2025).
Numbered stars: 1 amine (or outer) side, 2 acyl side, 3 side chain; on linkers, the order of the positions; unused ones are H or OH. Bridge positions count the residues as written; N and C are the ends. Square brackets hold non-standard residues; d marks the D form. Peptide text beside a SMILES is read from it. * marks the point of attachment. Orn(4R-OH,5R-OCH2CH2NMe3+) = C[N+](C)(C)CCO[C@@H](N[*:3])[C@H](O)C[C@H](N[*:1])C(=O)[*:2]; pTerphenylCO(4''-OnC5H11) = CCCCCOc1ccc(-c2ccc(-c3ccc(C(=O)*)cc3)cc2)cc1; hTyr(3S-OH,4S-OH) = N[C@H](C(=O)O)[C@H](O)[C@@H](O)c1ccc(O)cc1; X4 = CCCCCOc1c(F)cc(C#Cc2ccc3cc(C(=O)*)ccc3c2)cc1F; Pro(3S-OH,4S-Me) = C[C@H]1CN[C@H](C(=O)O)[C@H]1O; X3 = CCCCCOc1ccc(C#Cc2ccc3cc(C(=O)*)ccc3c2)cc1F; Hyp = O=C(O)[C@@H]1C[C@@H](O)CN1

What was measured:
[1] = system: C. parapsilosis ATCC 22019; assay: MIC assay, Candida standard strain (CLSI M27-A3); type: cell-based; conditions: Lodderomyces parapsilosis, ATCC22019; C. parapsilosis ATCC 22019 (quality-control strain); 24 h, 35° C.
Procedure: (§1) After gradient dilution of test compounds, an MIC assay was performed on a Candida standard strain, and an MEC assay was performed on an Aspergillus standard strain. […] A cryopreserved strain was passaged at least 2 times. A single colony was picked and resuspended in a physiological saline or sterile water tube, and the tube was subjected to vortex shaking. The Candida suspension was adjusted to 0.5 McF (1×10^6-5×10^6 CFU/mL) at a wavelength of 530 nm by using a spectrophotometer. After being diluted 50 times with physiological saline, the Candida suspension was diluted 20 times with 1×RPMI 1640 broth (1×10^3-5×10^3 CFU/mL). 10 μL of the diluted Candida suspension was coated on an SDA plate for colony counting, with a range of about 10-50 single colonies. After a prepared drug sensitive plate was completely dissolved at room temperature, the Candida suspension was added to the 96-well plate by using a multi-channel pipettor at 100 μL/well. At this time, the concentration of Candida in each well should be 0.5×10^3-2.5×10^3 CFU/mL. A yeast-type fungus assay plate was placed in an incubator, and incubated for 24 h at 35° C. and 85% humidity, and then the MIC values were read. For echinocandin-based drugs, Aspergillus was incubated for 21-26 h at 28° C., and then the MEC results were read. Yeast-type fungi: A 96-well plate was attached with a disposable parafilm, shaken for uniformly mixing, and observed with naked eyes by using a plate reader microscope. […] Pictures were taken and saved by using an automated plate reader.

[2] = system: Candida albicans CICC 1943; assay: MIC assay, Candida standard strain (CLSI M27-A3); type: cell-based; conditions: CICC1943, 24 h, 35° C.
Procedure: as §1

C. glabrata ATCC 15126 = assay: MIC assay, Candida standard strain (CLSI M27-A3); type: cell-based; conditions: Nakaseomyces glabratus, ATCC15126, 24 h, 35° C.
Procedure: as §1

[3] = system: Candida albicans ATCC MYA-4788; assay: MIC assay, Candida standard strain (CLSI M27-A3); type: cell-based; conditions: 24 h, 35° C.
Procedure: as §1

[4] = system: Candida albicans CMCC 98001; assay: MIC assay, Candida standard strain (CLSI M27-A3); type: cell-based; conditions: CMCC98001, 24 h, 35° C.
Procedure: as §1

[5] = system: Candida albicans ATCC 10231; assay: MIC assay, Candida standard strain (CLSI M27-A3); type: cell-based; conditions: ATCC10231, 24 h, 35° C., >50% growth inhibition
Procedure: as §1

[6] = system: Candida albicans ATCC 14053; assay: MIC assay, Candida standard strain (CLSI M27-A3); type: cell-based; conditions: ATCC14053, 24 h, 35° C.
Procedure: as §1

[7] = system: Candida albicans ATCC 64124; assay: MIC assay, Candida standard strain (CLSI M27-A3); type: cell-based; conditions: ATCC64124, 24 h, 35° C.
Procedure: as §1

[8] = system: Candida albicans ATCC 18804; assay: MIC assay, Candida standard strain (CLSI M27-A3); type: cell-based; conditions: ATCC18804, 24 h, 35° C.
Procedure: as §1

[9] = system: Candida albicans ATCC MYA-1023; assay: MIC assay, Candida standard strain (CLSI M27-A3); type: cell-based; conditions: 24 h, 35° C.
Procedure: as §1

[10] = system: Candida albicans ATCC MYA-2876; assay: MIC assay, Candida standard strain (CLSI M27-A3); type: cell-based; conditions: 24 h, 35° C.
Procedure: as §1

[11] = system: Candida albicans ATCC MYA-427; assay: MIC assay, Candida standard strain (CLSI M27-A3); type: cell-based; conditions: 24 h, 35° C.
Procedure: as §1

C. tropicalis ATCC 750 = assay: MIC assay, Candida standard strain (CLSI M27-A3); type: cell-based; conditions: ATCC750, 24 h, 35° C.
Procedure: as §1

[12] = system: Candida albicans ATCC 90029; assay: MIC assay, Candida standard strain (CLSI M27-A3); type: cell-based; conditions: ATCC90029, 24 h, 35° C.
Procedure: as §1

C. krusei ATCC 6258 = assay: MIC assay, Candida standard strain (CLSI M27-A3); type: cell-based; conditions: Pichia kudriavzevii, ATCC6258; C. krusei ATCC 6258 (quality-control strain); 24 h, 35° C.
Procedure: as §1

[13] = system: Candida albicans ATCC MYA-574; assay: MIC assay, Candida standard strain (CLSI M27-A3); type: cell-based; conditions: 24 h, 35° C.
Procedure: as §1

[14] = system: Candida albicans ATCC 76485; assay: MIC assay, Candida standard strain (CLSI M27-A3); type: cell-based; conditions: ATCC76485, 24 h, 35° C.
Procedure: as §1

[15] = system: Candida albicans ATCC 90028; assay: MIC assay, Candida standard strain (CLSI M27-A3); type: cell-based; conditions: ATCC90028, 24 h, 35° C., >50% growth inhibition
Procedure: as §1

[16] = system: Pichia guilliermondii ATCC 6260; assay: MIC assay, yeast-type fungi (CLSI M27-A3); type: cell-based; conditions: Meyerozyma guilliermondii, ATCC6260, 24 h, 35° C.
Procedure: as §1

[17] = system: Aspergillus fumigatus ATCC 204305; assay: MEC assay, Aspergillus standard strain (CLSI M38-A2); type: cell-based; conditions: 21-26 h, 28° C.
Procedure: After gradient dilution of test compounds, an MIC assay was performed on a Candida standard strain, and an MEC assay was performed on an Aspergillus standard strain.
The colonies on the plate were covered with 0.85% physiological saline (1 mL) or sterile water (polysorbate 20 was added to a final concentration of 0.1%-0.01%). […] The resuspension of spore hyphae was transferred to a sterile test tube, and left to stand for 3-5 min to precipitate heavier particles. The homogeneous suspension on the upper layer was transferred to a new sterile test tube, and the tube was capped closely, and subjected to vortex shaking for 15 s (note: the suspension can produce an aerosol when the cap is reopened). The concentration of the suspension was adjusted to an OD value of 0.09-0.13 at 530 nm by using a spectrophotometer. […] Within 2 h after dilution, 100 μL of the diluted suspension was added to each well in a 96-well plate (the concentration of spores in the final drug sensitive plate should be 0.4×10^4-5×10^4 CFU/mL).
In order to accurately determine MEC value, vortex oscillation should not be allowed before reading the plate.

[18] = system: Cryptococcus neoformans ATCC 208821; assay: MIC assay, yeast-type fungi (CLSI M27-A3); type: cell-based; conditions: ATCC208821, 24 h, 35° C.
[19] = Study on pharmacokinetic properties in rats after intravenous injection; conditions: SD, rat, in vivo, 5 mg/kg

SMILES | MIC [1] | MIC [2] | MIC (C. glabrata ATCC 15126) | MIC [3] | MIC [4] | MIC [5] | MIC [6] | MIC [7] | MIC [8] | MIC [9] | MIC [10] | MIC [11] | MIC (C. tropicalis ATCC 750) | MIC [12] | MIC (C. krusei ATCC 6258) | MIC [13] | MIC [14] | MIC [15] | MIC [16] | MEC [17] | other results
CCCCCOc1ccc(C#Cc2ccc3cc(C(=O)N[C@H]4C[C@@H](O)[C@@H](OCC[N+](C)(C)C)NC(=O)[C@@H]5[C@@H](O)[C@@H](C)CN5C(=O)[C@H]([C@@H](C)O)NC(=O)[C@H]([C@H](O)[C@@H](O)c5ccc(O)cc5)NC(=O)[C@@H]5C[C@@H](O)CN5C(=O)[C@H]([C@@H](C)O)NC4=O)ccc3c2)cc1F [Example 10] (X3-[Orn(4R-OH,5R-OCH2CH2NMe3+)]T[Hyp][hTyr(3S-OH,4S-OH)]T[Pro(3S-OH,4S-Me)]; lactam 1-C) | 0.5 µg/mL | 0.03 µg/mL | 0.06 µg/mL | ≤ 0.015 µg/mL | ≤ 0.015 µg/mL | 0.03 µg/mL | ≤ 0.015 µg/mL | ≤ 0.015 µg/mL | ≤ 0.015 µg/mL | ≤ 0.015 µg/mL | ≤ 0.015 µg/mL | 0.03 µg/mL | ≤ 0.015 µg/mL | ≤ 0.015 µg/mL | 0.06 µg/mL | ≤ 0.015 µg/mL | ≤ 0.015 µg/mL | ≤ 0.015 µg/mL | 0.25 µg/mL | ≤0.015 µg/mL | MIC [18]: 8 µg/mL
CCCCCOc1c(F)cc(C#Cc2ccc3cc(C(=O)N[C@H]4C[C@@H](O)[C@@H](OCC[N+](C)(C)C)NC(=O)[C@@H]5[C@@H](O)[C@@H](C)CN5C(=O)[C@H]([C@@H](C)O)NC(=O)[C@H]([C@H](O)[C@@H](O)c5ccc(O)cc5)NC(=O)[C@@H]5C[C@@H](O)CN5C(=O)[C@H]([C@@H](C)O)NC4=O)ccc3c2)cc1F [Example 14] (X4-[Orn(4R-OH,5R-OCH2CH2NMe3+)]T[Hyp][hTyr(3S-OH,4S-OH)]T[Pro(3S-OH,4S-Me)]; lactam 1-C) | 0.25 µg/mL | 0.03 µg/mL | 0.06 µg/mL | ≤ 0.015 µg/mL | ≤ 0.015 µg/mL | 0.03 µg/mL | ≤ 0.015 µg/mL | ≤ 0.015 µg/mL | ≤ 0.015 µg/mL | ≤ 0.015 µg/mL | ≤ 0.015 µg/mL | 0.03 µg/mL | ≤ 0.015 µg/mL | ≤ 0.015 µg/mL | 0.06 µg/mL | ≤ 0.015 µg/mL | ≤ 0.015 µg/mL | ≤ 0.015 µg/mL | 0.25 µg/mL | ≤0.015 µg/mL | MIC [18]: 8 µg/mL
CCCCCOc1ccc(-c2ccc(-c3ccc(C(=O)N[C@H]4C[C@@H](O)[C@@H](OCC[N+](C)(C)C)NC(=O)[C@@H]5[C@@H](O)[C@@H](C)CN5C(=O)[C@H]([C@@H](C)O)NC(=O)[C@H]([C@H](O)[C@@H](O)c5ccc(O)cc5)NC(=O)[C@@H]5C[C@@H](O)CN5C(=O)[C@H]([C@@H](C)O)NC4=O)cc3)cc2)cc1 [Rezafungin, rezafungin, reference compound] ({pTerphenylCO(4''-OnC5H11)}-[Orn(4R-OH,5R-OCH2CH2NMe3+)]T[Hyp][hTyr(3S-OH,4S-OH)]T[Pro(3S-OH,4S-Me)]; lactam 1-C) | 0.5 µg/mL | ≤ 0.015 µg/mL | 0.06 µg/mL | ≤ 0.015 µg/mL | ≤ 0.015 µg/mL | ≤ 0.015 µg/mL | ≤ 0.015 µg/mL | ≤ 0.015 µg/mL | ≤ 0.015 µg/mL | ≤ 0.015 µg/mL | ≤ 0.015 µg/mL | ≤ 0.015 µg/mL | ≤ 0.015 µg/mL | ≤ 0.015 µg/mL | 0.03 µg/mL | ≤ 0.015 µg/mL | ≤ 0.015 µg/mL | ≤ 0.015 µg/mL | 0.25 µg/mL | ≤0.015 µg/mL | AUC(0-inf) [19]: 104000 ng·h/mL; AUC(0-t) [19]: 89000 ng·h/mL; Cmax [19]: 4750 ng/mL; MRT last [19]: 20.2 h; Vd [19]: 1.9 L/kg; clearance [19]: 0.8 mL/min/kg; half-life [19]: 27.5 h; MIC [18]: 16 µg/mL
